≈ marks a conversion by molar mass, not a printed value. Where two headings read alike, the source gives them in different places.
Legend:
SW620 = assay: Inhibition of cancer cell growth as measured by cell number, SW620; type: cell-based; conditions: Homo sapiens, read-out: IC50, inhibition of cancer cell growth
Procedure: (§1) After 48 hours exposure to test compounds, cells were fixed with trichloroacetic acid, and stained with Sulforhodamine B. After washing with trichloroacetic acid, bound dye was solubilized in 10 mM Tris base and optical density was determined using plate reader. Under conditions of the assay the optical density is proportional to the number of cells in the well. […] The test procedure is described in details by Philip Skehan et. al, J.Natl. Canc.

MCF7 = assay: Inhibition of cancer cell growth as measured by cell number, MCF7; type: cell-based; conditions: Homo sapiens, read-out: IC50, inhibition of cancer cell growth
Procedure: as §1

A2780S = assay: Inhibition of cancer cell growth as measured by cell number, A2780S; type: cell-based; conditions: Homo sapiens, read-out: IC50, inhibition of cancer cell growth
Procedure: as §1

LOX = assay: Inhibition of cancer cell growth as measured by cell number, LOX; type: cell-based; conditions: Homo sapiens, read-out: IC50, inhibition of cancer cell growth
Procedure: as §1

MB435 = assay: Inhibition of cancer cell growth as measured by cell number, MB435; type: cell-based; conditions: Homo sapiens, read-out: IC50, inhibition of cancer cell growth
Procedure: as §1

SKBR3 = assay: Inhibition of cancer cell growth as measured by cell number, SKBR3; type: cell-based; conditions: Homo sapiens, read-out: IC50, inhibition of cancer cell growth
Procedure: as §1

A2780DDP = assay: Inhibition of cancer cell growth as measured by cell number, A2780DDP; type: cell-based; conditions: Homo sapiens, read-out: IC50, inhibition of cancer cell growth
Procedure: as §1

A431 = assay: Inhibition of cancer cell growth as measured by cell number, A431; type: cell-based; conditions: Homo sapiens, read-out: IC50, inhibition of cancer cell growth
Procedure: as §1

[1] = test system: human epidermoid tumors (A431); type: in vivo, BALB/c nu/nu female mice; conditions: for % T/C / Relative Tumor Growth (RTG): days 1 through 10; for inhibition of tumor growth in vivo: in words
Procedure: BALB/c nu/nu female mice (Charles River, Wilmington, Mass.) were used in the in vivo standard pharmacological test procedures. […] A unit of 5×10^6 cells were injected SC into mice. When tumors attained a mass of between 100 and 150 mg, the mice were randomized into treatment groups (day zero). Mice were treated IP or PO once a day either on days 1, 5, and 9 or on days 1 through 10 post staging with doses of either 80, 40 or 20, or 10 mg/kg/dose of the compound to be evaluated in 0.2% Klucel. Control animals received no drug. […] […] The %T/C (Tumor/Control) is determined by dividing the relative tumor growth of the treated group by the relative tumor growth of the placebo group and multiplying by 100.

Row | SMILES | IC50 (SW620; SW-620, 48 h) [µg/mL] | IC50 (MCF7; MCF7, 48 h) [µg/mL] | IC50 (A2780S; 48 h) [µg/mL] | IC50 (LOX; 48 h) [µg/mL] | IC50 (MB435; 48 h) [µg/mL] | IC50 (SKBR3; SK-BR-3, 48 h) [µg/mL] | IC50 (A2780DDP; 48 h) [µg/mL] | IC50 (A431; A-431, 48 h) [µg/mL] | inhibition of tumor growth in vivo [1] | also measured
1 | CC(C)(C)[Si](C)(C)OCC#CC(=O)Nc1ccc2ncnc(Nc3cccc(Br)c3)c2c1 [Example 15, 4-(tert-Butyl-dimethyl-silanyloxy)-but-2-ynoic acid [4-(3-bromo-phenylamino)-quinazolin-6-yl]-amide] | 0.02 (≈ 0.0391 µM) | 0.45 (≈ 0.88 µM) | 0.02 (≈ 0.0391 µM) | 0.03 (≈ 0.0587 µM) | 0.42 (≈ 0.821 µM) | 0.38 (≈ 0.743 µM) | 0.05 (≈ 0.0978 µM) | 0.04 (≈ 0.0782 µM) |  | 
2 | CN(C)CC=CC(=O)Nc1ccc2ncnc(Nc3cccc(Br)c3)c2c1 [Example 66, 4-Dimethylamino-but-2-enoic acid [4-(3-bromo-phenylamino)-quinazolin-6-yl]-amide] | 5.1 (≈ 12 µM) | 7.6 (≈ 17.8 µM) | 3.9 (≈ 9.15 µM) | 4.9 (≈ 11.5 µM) | 5.4 (≈ 12.7 µM) | < 0.01 | 5.1 (≈ 12 µM) | 0.007 (≈ 0.0164 µM) |  | 
3 | CCN(CC)CC=CC(=O)Nc1ccc2ncnc(Nc3cccc(Br)c3)c2c1 [Example 67, 4-Diethylamino-but-2-enoic acid [4-(3-bromo-phenylamino)-quinazolin-6-yl]-amide] |  |  |  |  |  |  |  |  |  | IC50 (SW620; SW-620, SW620, 48 hours exposure): 52 µg/mL (≈ 114 µM); IC50 (MCF7; MCF7, 48 hours exposure): 59 µg/mL (≈ 130 µM); IC50 (A2780S; 48 hours exposure): 22 µg/mL (≈ 48.4 µM); IC50 (LOX; 48 hours exposure): 46 µg/mL (≈ 101 µM); IC50 (MB435; MB435, 48 hours exposure): 45 µg/mL (≈ 99 µM); IC50 (SKBR3; SK-BR-3, SKBR3, 48 hours exposure): < 0.01 µg/mL; IC50 (A2780DDP; A2780DDP, 48 hours exposure): 43 µg/mL (≈ 94.6 µM); IC50 (A431; A-431, A431, 48 hours exposure): 0.01 µg/mL (≈ 0.022 µM)
4 | C=C(CN1CCOCC1)C(=O)Nc1ccc2ncnc(Nc3cccc(Br)c3)c2c1 [Example 63, N-[4-(3-Bromo-phenylamino)-quinazolin-6-yl]-2-morpholin-4-ylmethyl-acrylamide] | 5.5 (≈ 11.7 µM) | 17 (≈ 36.3 µM) | 0.8 (≈ 1.71 µM) | 3.9 (≈ 8.33 µM) | 4.5 (≈ 9.61 µM) | 10 (≈ 21.4 µM) | 4 (≈ 8.54 µM) | 0.6 (≈ 1.28 µM) |  | 
5 | CCN(CC)CC#CC(=O)Nc1ccc2ncnc(Nc3cccc(Br)c3)c2c1 [Example 25, 4-Diethylamino-but-2-ynoic acid[4-(3-bromo-phenylamino)-quinazolin-6-yl]-amide] |  |  |  |  |  |  |  |  | effective inhibitor of tumor growth in vivo | % T/C ([1]; 40 PO, Day 7 (TABLE 5)): 71%; Relative Tumor Growth (RTG) ([1]; 40 PO, Day 7, control 2.76 (TABLE 5)): 1.96; % T/C ([1]; 40 PO, Day 14 (TABLE 5)): 33%; Relative Tumor Growth (RTG) ([1]; 40 PO, Day 14, control 7.07 (TABLE 5)): 2.33; % T/C ([1]; 40 PO, Day 21 (TABLE 5)): 40%; Relative Tumor Growth (RTG) ([1]; 40 PO, Day 21, control 11.75 (TABLE 5)): 4.68; % T/C ([1]; 40 PO, Day 28 (TABLE 5)): 52%; Relative Tumor Growth (RTG) ([1]; 40 PO, Day 28, control 17.13 (TABLE 5)): 8.84; S/T (No. Survivors/No. Treated) ([1]; mouse, in vivo, po): 4/5
6 | CN(C)CC#CC(=O)Nc1ccc2ncnc(Nc3cccc(Br)c3)c2c1 [Example 21, 4-Dimethylamino-but-2-ynoic acid [4-(3-bromo-phenylamino)-quinazolin-6-yl]-amide] |  |  |  |  |  |  |  |  | effective inhibitor of tumor growth in vivo | % T/C ([1]; 10 mg/kg/dose PO, Day 16): 56%; % T/C ([1]; 10 mg/kg/dose PO, Day 21): 42%; % T/C ([1]; 10 mg/kg/dose PO, Day 28): 42%; % T/C ([1]; 20 mg/kg/dose PO, Day 7): 100%; % T/C ([1]; 20 mg/kg/dose PO, Day 16): 82%; % T/C ([1]; 20 mg/kg/dose PO, Day 28): 72%; % T/C ([1]; 40 mg/kg/dose PO, Day 7): 79%; % T/C ([1]; 40 mg/kg/dose PO, Day 16): 84%

Reference: patent US6251912A, “Substituted quinazoline derivatives” (American Cyanamid Company, priority 1998, dated 2001)
